Data taken from PubChem BioAssay AID2250 (Sanford-Burnham Center for Chemical Genomics, 2010).
Activity calls are given as the source filed them. No rule for the calls is given here.

Tested on: MCF-7/NOD1 cells, GM-Tri-DAP induced IL-8 secretion
Test: inhibition of NOD1-driven IL-8 release, SAR follow-up, MCF-7/NOD1 cells, GM-Tri-DAP stimulus (AID 2250)

Row | IC50 | SMILES
1 | > 25 µM (inactive) | O=C(O)c1c(NC(=O)N2CCOCC2)sc2c1CCCC2
2 | > 5 µM (inactive) | Cc1ccc(S(=O)(=O)n2c(N)nc3cc(C)c(C)cc32)cc1
